Here are results for 24 compounds from ChEMBL document CHEMBL1150463, “Identification of simpler analogs of neurotensin(913) which retain antinociceptive activity” (Bioorg Med Chem Lett, 1993).

Where a SMILES comes first, the peptide text is derived from it. [ ]: non-standard residue; d: D form. The star is where a group is joined. Orn = NCCC[C@H](N)C(=O)O; Nva = CCC[C@H](N)C(=O)O; Ahx = NCCCCCC(=O)O; X1 = CC(C)CCO*

One assay relates to Mus musculus. In words: Antinociceptive activity using the mouse phenylquinone writhing assay with i.c.v. administration. The assay is classed as functional.
Assay [1] in a line: In vitro affinity for the neurotensin receptor on mouse brain membranes. The assay is classed as tissue-based.

Usually Ki stands for the equilibrium dissociation constant of an inhibitor or competing ligand from its target. High values mean weaker binding, low ones tighter binding. In the assay on Mus musculus, `CC[C@H](C)[C@H](NC(=O)[C@H](Cc1ccc(O)cc1)NC(=O)[C@@H]1CCCN1C(=O)CCCCCN)C(=O)N[C@@H](CC(C)C)C(=O)O` (H-[Ahx]PYIL-OH) yielded an ED50 of 1.3 ug mouse-1. The same compound came in with a Ki in assay [1] of 1300 nM.
Take H-APYIL-OH: the ED50 in the assay with Mus musculus was less than 50 ug mouse-1. In assay [1], this compound had an inhibition constant Ki of 5900 nM.
`CC[C@H](C)[C@H](NC(=O)[C@H](Cc1ccc(O)cc1)NC(=O)[C@@H]1CCCN1)C(=O)N[C@@H](CC(C)C)C(=O)O` (H-PYIL-OH) registered an ED50 in the assay on Mus musculus of more than 50 ug mouse-1. Further, the Ki in assay [1] is more than 1000 nM.
Taken in the same sequence, the figures for `CC[C@H](C)[C@H](NC(=O)[C@@H](N)Cc1ccc(O)cc1)C(=O)O` (H-Tyr-Ile-OH) were more than 50 ug mouse-1 and more than 1000 nM.
Consider `NC(N)=NCCC[C@H](NC(=O)[C@@H](N)CCCN=C(N)N)C(=O)N1CCC[C@H]1C(=O)O` (H-Arg-Arg-Pro-OH), for which, in the assay with Mus musculus, the ED50 entry is on record as “>=500 ug mouse-1”.
Turning to `CC[C@H](C)[C@H](NC(=O)[C@H](Cc1ccc(O)cc1)NC(=O)[C@@H]1CCCN1C(=O)[C@@H](N)CCCN)C(=O)N[C@@H](CC(C)C)C(=O)O` (H-[Orn]PYIL-OH), the ED50 in the assay with Mus musculus worked out at 20 ug mouse-1. This compound also showed a Ki in assay [1] of 520 nM.
For `CCC[C@H](N)C(=O)N1CCC[C@H]1C(=O)N[C@@H](Cc1ccc(O)cc1)C(=O)N[C@H](C(=O)N[C@@H](CC(C)C)C(=O)O)[C@@H](C)CC` (H-[Nva]PYIL-OH), the ED50 in the assay on Mus musculus is recorded as more than 50 ug mouse-1. In assay [1], the Ki was 3000 nM.
As for `CC[C@H](C)[C@H](NC(=O)[C@H](Cc1ccc(O)cc1)NC(=O)[C@@H]1CCCN1C(=O)[C@@H](N)CCCN=C(N)N)C(=O)N[C@@H](CC(C)C)C(=O)O`, the ED50 in the assay on Mus musculus is listed as 0.0201 ug mouse-1. The affinity in assay [1] corresponds to a Ki of 73 nM.
`CC[C@@H](C)[C@H](NC(=O)[C@H](Cc1ccc(O)cc1)NC(=O)[C@@H]1CCCN1C(=O)[C@H](CCCNC(=N)N)NC(=O)[C@@H](N)CCCNC(=N)N)C(=O)N[C@@H](CC(C)C)C(=O)O` displayed a Ki in assay [1] of 4 nM.
In the assay on Mus musculus, H-KPYAL-OH gave an ED50 of more than 50 ug mouse-1. Further, the Ki in assay [1] came to 4200 nM.
H-KAYIL-OH: in the assay on Mus musculus, the ED50 is given as more than 50 ug mouse-1. The Ki in assay [1] was more than 10000 nM.
Compound `CC[C@H](C)[C@H](N)C(=O)N[C@@H](CC(C)C)C(=O)O` (H-Ile-Leu-OH) gave an ED50 with Mus musculus of more than 50 ug mouse-1. In addition, in assay [1], the Ki is more than 1000 nM.
For the compound `CC[C@H](C)[C@H](NC(=O)[C@H](Cc1ccc(O)cc1)NC(=O)[C@@H]1CCCN1C(=O)[C@H](CCCNC(=N)N)NC(=O)[C@@H](N)CCCNC(=N)N)C(=O)N[C@@H](CC(C)C)C(=O)O`, the ED50 in the assay on Mus musculus is 0.092 ug mouse-1.
H-KPAIL-OH showed an ED50 in the assay with Mus musculus of more than 50 ug mouse-1. In assay [1], the Ki was more than 10000 nM.
The like results for H-KPYIA-OH were, in that order, more than 50 ug mouse-1 and more than 10000 nM.
Taken in the same sequence, the figures for `CC[C@H](C)[C@H](NC(=O)[C@@H](N)Cc1ccc(O)cc1)C(=O)N[C@@H](CC(C)C)C(=O)O` were more than 50 ug mouse-1 and more than 10000 nM.
With `NC(N)=NCCC[C@H](N)C(=O)N1CCC[C@H]1C(=O)N[C@@H](Cc1ccc(O)cc1)C(=O)O` (H-Arg-Pro-Tyr-OH), in the assay on Mus musculus, the ED50 was 55 ug mouse-1. For the same compound, in assay [1], the Ki was more than 10000 nM.
Compound `O=C(O)[C@H](Cc1ccc(O)cc1)NC(=O)[C@@H]1CCCN1` (H-Pro-Tyr-OH) yielded an ED50 in the assay with Mus musculus of more than 50 ug mouse-1. This compound gave a Ki in assay [1] of 13000 nM.
In assay [1], `CC[C@H](C)[C@H](NC(=O)[C@H](Cc1ccc(O)cc1)NC(=O)[C@@H]1CCCN1C(=O)[C@@H](N)CCCCN)C(=O)OCCC(C)C` (H-KPYI-X1) yielded an inhibition constant Ki of more than 10000 nM.
`CC[C@@H](C)[C@H](NC(=O)[C@H](Cc1ccc(O)cc1)NC(=O)[C@@H]1CCCN1)C(=O)O`: the ED50 with Mus musculus is recorded as more than 50 ug mouse-1. Moreover, the Ki in assay [1] is more than 1000 nM.
The compound H-KPYIL-OH had an ED50 in the assay on Mus musculus of 8 ug mouse-1. Moreover, in assay [1], the affinity, expressed as Ki, was 690 nM.
Take `CC[C@H](C)[C@H](NC(=O)[C@H](Cc1ccc(O)cc1)NC(=O)[C@@H]1CCCN1C(=O)[C@@H](N)CCCN=C(N)N)C(=O)O` (H-RPYI-OH): the ED50 result in the assay with Mus musculus is “>=50 ug mouse-1”. In assay [1], this compound yielded a Ki of more than 1000 nM.
As for `NC(N)=NCCC[C@H](NC(=O)[C@@H](N)CCCN=C(N)N)C(=O)O` (H-Arg-Arg-OH), in the assay with Mus musculus, the ED50 is given as more than 50 ug mouse-1. The Ki in assay [1] was more than 100000 nM.
`NC(N)=NCCC[C@H](N)C(=O)N1CCC[C@H]1C(=O)O` (H-Arg-Pro-OH): the ED50 in the assay on Mus musculus is listed as more than 50 ug mouse-1. This compound also returned a Ki in assay [1] of more than 10000 nM.
